{"source": "patent US20230270753A1", "about": "“COMBINATIONS OF GABAA ALPHA 5 AGONISTS AND SV2A INHIBITORS AND METHODS OF USING IN THE TREATMENT OF COGNITIVE IMPAIRMENT” (AGENEBIO, INC., priority 2020, published 2023)", "key": {"[1]": {"format": "physicochemical", "settings": "solvent-mediated slurries, ambient temperature (Form E also 55° C. and 77° C.)", "method": "Interconversion experiments were performed to identify the most thermodynamically stable anhydrous form of Compound 1 (Table 19). […] The choice of solvent affects the kinetics of polymorph conversion and not the thermodynamic relationship between polymorphic forms.\nVarious combinations of Forms B, E, F, and Material D were slurried with Form A at ambient and elevated temperatures (for experiments involving Form E). Different solvent systems were used and included a variety of water activities. Saturated solutions were generated and then added to the mixtures composed of approximately equivalent quantities of the forms. The mixtures were slurried for a particular duration of time and the solids harvested and analyzed by XRPD."}, "[2]": {"format": "physicochemical", "method": "XRPD patterns were collected with a PANalytical X'Pert PRO MPD or a PANalytical Empyrean diffractometer using an incident beam of Cu radiation produced using an Optix long, fine-focus source. An elliptically graded multilayer mirror was used to focus Cu Kα X-rays through the specimen and onto the detector. Prior to the analysis, a silicon specimen (NIST SRM 640e) was analyzed to verify the observed position of the Si 111 peak is consistent with the NIST-certified position. A specimen of the sample was sandwiched between 3-μm-thick films and analyzed in transmission geometry. A beam-stop, short antiscatter extension, and antiscatter knife edge were used to minimize the background generated by air. Soller slits for the incident and diffracted beams were used to minimize broadening from axial divergence. Diffraction patterns were collected using a scanning position-sensitive detector (X'Celerator) located 240 mm from the specimen and Data Collector software v. 5.5."}, "[3]": {"test": "Dynamic vapor sorption (DVS)", "format": "physicochemical", "settings": "for hygroscopicity class: DVS isotherm; for form of the material recovered from the DVS experiment by XRPD: post DVS", "method": "Dynamic vapor sorption data was collected on a Surface Measurement System DVS Intrinsic instrument. The samples were not dried prior to analysis. Sorption and desorption data were collected over a range from 5% to 95% RH in 10% RH increments under a nitrogen purge. The equilibrium criteria used for the analyses were 0.001 dm/dt weight change in 5 minutes with a minimum step time of 30 minutes and maximum equilibration time of 180 minutes with a 3-minute data logging interval. Data were not corrected for the initial moisture content of the sample. The samples were identified as having low, limited or significant hygroscopicity based on the definitions in the below table."}, "[4]": {"test": "Differential scanning calorimetry / thermogravimetry", "format": "physicochemical", "settings": "DSC 10° C./min", "method": "DSC was performed using a Mettler-Toledo DSC3+ differential scanning calorimeter. A tau lag adjustment is performed with indium, tin, and zinc. The temperature and enthalpy are adjusted with octane, phenyl salicylate, indium, tin and zinc. The adjustment is then verified with octane, phenyl salicylate, indium, tin, and zinc. The sample was placed into a hermetically sealed aluminum DSC pan, the weight was accurately recorded, and the sample was inserted into the DSC cell. A weighed aluminum pan configured as the sample pan was placed on the reference side of the cell. The pan lid was pierced prior to sample analysis. The samples were analyzed from −25° C. to 250° C. at 10° C./min.\nThermogravimetric analyses were performed using a Mettler-Toledo TGA/DSC3+ analyzer. Temperature calibration was performed using calcium oxalate, indium, tin, and zinc. The sample was placed in an aluminum pan. The pan was hermetically sealed, the lid was pierced, and the pan was then inserted into the TG furnace. A weighed aluminum pan configured as the sample pan was placed on the reference platform. The furnace was heated under nitrogen. Samples were analyzed from 25° C. to 350° C. at 10° C./min."}, "[5]": {"tested_on": "Aged-Impaired rats (AI rats)", "test": "Radial Arm Maze task, 2-hr delay, acute brivaracetam or seletracetam (Example 4)", "format": "in vivo, rat", "settings": "doses 0.0625-4 mg/kg i.p., 30-40 min prior to test; repeated measures ANOVA", "excerpt": "All rats were screened in a standardized assessment of spatial cognition prior to the studies with experimental treatments. That background assessment used a well-established Morris Water Maze protocol. The MWM protocol was substantially the same as the one described in Example 1. See, also, Gallagher et al., Behav. Neurosci. 107:618-626, (1993). Briefly, the rats were trained for eight days (three trials per day) to locate a camouflaged escape platform that remained at the same location throughout training in a water maze. Every sixth trial consisted of a probe trial (free swim with no escape platform) that served to assess the development of a spatially localized search for the escape platform. During these probe trials, a learning index was generated from the proximity of the rat to the escape platform and was used to define impairment in the aged rats. The learning index is the sum of weighted proximity scores obtained during probe trials, with low scores reflecting a search near the escape platform and high scores reflecting searches farther away from the platform (Gallagher et al, 1993). Cue training (visible escape platform) occurred on the last day of training to test for sensorimotor and motivational factors independent of spatial learning. […]"}, "[6]": {"tested_on": "memory-impaired aged rats", "test": "Water maze after chronic brivaracetam by osmotic mini-pump (Example 4)", "format": "in vivo, rat", "settings": "brivaracetam 2 mg/kg/day by osmotic mini-pump, 14 days, probe test", "method": "The radial arm maze experiments used acute administration of seletracetam (0-4 mg/kg), brivaracetam (0-4 mg/kg), or saline vehicle given by intraperitoneal injection (in a volume of 1 ml/kg) 30-40 min prior to test sessions.\nRats were trained and tested in a novel water maze environment to assess the effect of drug treatment. The water maze used here was housed in a different building and was surrounded by curtains with a novel set of patterns relative to the maze used for initial assessment of cognitive status. The training protocol consisted of 6 trials per day for 2 days to locate a submerged escape platform. On each trial, a rat was released in the maze from one of four equally spaced starting positions around the perimeter of the pool. The starting position varied from trial to trial. […] The rat was then removed from the platform and placed in a holding cage for another 40 s before the next trial. Approximately 24 hr after the last training trial, a probe test in the absence of the escape platform was given to assess spatial memory."}, "MAM-treated rats": {"tested_on": "MAM-treated rats", "settings": "cited from earlier work"}}, "note": "“Also recorded” adds a separate entry of the source. Where two headings read alike, the source gives them in different places.", "data": [{"compound": "COCc1nnc2n1Cc1c(C#Cc3cnc(OC)s3)ncn1-c1ccc(Cl)cc1-2", "note": "[Material D]", "values": [{"measurement": "relative thermodynamic stability between crystalline forms", "setting": "[1]", "result": "metastable relative to Form A"}, {"measurement": "stability of the form on ambient storage", "setting": "[2]; 7 weeks of ambient storage, mixture with Form A", "result": "Material D still remained"}]}, {"compound": "COCc1nnc2n1Cc1c(C#Cc3cnc(OC)s3)ncn1-c1ccc(Cl)cc1-2", "note": "[Form F]", "values": [{"measurement": "hygroscopicity class", "setting": "[3]; 5% to 95% RH", "result": "limited hygroscopicity"}, {"measurement": "weight gain on sorption", "setting": "[3]; DVS, 5-95% RH", "result": 1.8, "unit": "%"}, {"measurement": "weight loss upon desorption", "setting": "[3]; DVS, with significant hysteresis", "result": 1.5, "unit": "%"}, {"measurement": "form of the material recovered from the DVS experiment by XRPD", "setting": "[3]", "result": "still Form F"}, {"measurement": "onset of DSC exotherm due to decomposition", "setting": "[4]", "result": "above 120 °C"}, {"measurement": "stability of the form under vacuum", "setting": "[2]; 5 days under vacuum at ambient temperature", "result": "remain unchanged"}]}, {"compound": "COCc1nnc2n1Cc1c(C#Cc3cnc(OC)s3)ncn1-c1ccc(Cl)cc1-2", "note": "[Form C]", "values": [{"measurement": "onset of DSC exotherm due to decomposition", "setting": "[4]", "result": 190, "unit": "°C"}, {"measurement": "stability of the form on ambient storage", "setting": "[2]; 9 weeks under ambient conditions", "result": "remain unchanged"}, {"measurement": "stability of the form on heating", "setting": "[2]; overnight exposure to 80° C.", "result": "desolvate to Form B"}]}, {"compound": "CC[C@@H](C(N)=O)N1C[C@H](C=C(F)F)CC1=O", "note": "[seletracetam, (2S)-2-[(4S)-4-(2,2-difluoroethenyl)-2-oxopyrrolidin-1-yl]butanamide]", "values": [{"measurement": "number of errors in the retention phase after the 2-hr delay", "setting": "[5]", "result": "significant effect as a function of dose"}]}, {"compound": "CCC[C@@H]1CC(=O)N([C@@H](CC)C(N)=O)C1", "note": "[brivaracetam, (2S)-2-[(4R)-2-oxo-4-propylpyrrolidin-1-yl]butanamide]", "values": [{"measurement": "number of errors in the retention phase after the 2-hr delay", "setting": "[5]", "result": "significant effect as a function of dose"}, {"measurement": "time in the target annulus vs vehicle-treated rats", "setting": "[6]", "result": "significantly more time in the target annulus"}, {"measurement": "time in the target quadrant vs vehicle-treated rats", "setting": "[6]", "result": "significantly more time in the target quadrant"}, {"measurement": "spatial bias for the target quadrant compared to the other control quadrants", "setting": "[6]; n=3/group", "result": "significant spatial bias"}]}, {"compound": "COCc1nnc2n1Cc1c(C#Cc3cnc(OC)s3)ncn1-c1ccc(Cl)cc1-2", "note": "[Form A]", "values": [{"measurement": "hygroscopicity class", "setting": "[3]; 5% to 95% RH", "result": "limited hygroscopicity; also recorded: low hygroscopicity"}, {"measurement": "weight change through the sorption/desorption cycle", "setting": "[3]; DVS, 5% to 95% RH", "result": "~0.3", "unit": "%"}, {"measurement": "form of the material recovered from the DVS experiment by XRPD", "setting": "[3]", "result": "identified as the same as the starting material"}, {"measurement": "relative thermodynamic stability between crystalline forms", "setting": "[1]", "result": "more thermodynamically stable than Form B and Material D at ambient temperature and Form E at ambient temperature, 55° C., and 77 °C"}, {"measurement": "relative thermodynamic stability between crystalline forms", "setting": "[1]; listed as Form A of Compound 1", "result": "superior stability"}]}, {"compound": "COCc1nnc2n1Cc1c(C#Cc3cnc(OC)s3)ncn1-c1ccc(Cl)cc1-2", "note": "[Form E]", "values": [{"measurement": "relative thermodynamic stability between crystalline forms", "setting": "[1]", "result": "metastable relative to Form A"}]}, {"compound": "C#Cc1ccc2c(c1)C(c1ccccc1F)=N[C@H](C)c1c(C(=O)OCC)ncn1-2", "note": "[SH-053-2′F—R—CH3]", "values": [{"measurement": "number of spontaneously active DA neurons in the ventral tegmental area (VTA)", "setting": "MAM-treated rats; MAM rats, administered systemically or infused into the ventral HPC", "result": "reduces the number of spontaneously active DA neurons"}, {"measurement": "locomotor response to amphetamine", "setting": "MAM-treated rats; MAM-treated rats", "result": "is reduced"}]}, {"compound": "COCc1nnc2n1Cc1c(C#Cc3cnc(OC)s3)ncn1-c1ccc(Cl)cc1-2", "note": "[Form B]", "values": [{"measurement": "onset of DSC exotherm due to decomposition", "setting": "[4]", "result": "about 190 °C"}, {"measurement": "relative thermodynamic stability between crystalline forms", "setting": "[1]", "result": "metastable relative to Form A"}]}, {"compound": "NC1=N[C@H](O)[C@H]2[C@H]3O[C@]4(O)O[C@@H]([C@@H](O)[C@@]2(N1)[C@@H]4O)[C@]3(O)CO", "note": "[tetrodotoxin]", "values": [{"measurement": "DA neuron population activity", "setting": "MAM-treated rats; rat, in vivo", "result": "completely reversed the elevated DA neuron population activity"}, {"measurement": "amphetamine-induced locomotor behavior", "setting": "MAM-treated rats; rat, in vivo", "result": "normalized the augmented amphetamine-induced locomotor behavior"}]}]}
